Source: patent US20220162215A1, “COMPOSITIONS AND METHODS OF USING THE SAME FOR TREATMENT OF NEURODEGENERATIVE AND MITOCHONDRIAL DISEASE” (MITOKININ, INC., priority 2019, published 2022)
In brackets after ≈: the same amount, converted by molar mass. Read-outs that look alike come from different tables or passages of the source.

What was measured:
HeLa MKYP cells [1] = test: Toxicity / cell death measured by DAPI staining (take-up); type: cell-based; conditions: for Toxicity (% positive for DAPI takeup @ 50 μM): Table 3; for Max cell death at 25 uM compound, 1 uM FO / Cell death at 25 μM (no FO): Table 3 Supplement B
Description: H2O2 treatment was performed as a control for cell death as measured by DAPI staining.
(§1) Briefly, HeLa MKYP cells were plated at 10,000 cells/well in 96 well plates along with compounds at various concentrations. Following 16 hrs of incubation, cells were treated with 1 uM FCCP/oligomycin for 6 hours, then analyzed via FACS for the presence of mitochondria in lysosomes (as determined by an emissions spectrum shift from the pH-sensitive mtKeima tag).

Solubility in 1× PBS = type: physicochemical
HeLa MKYP cells [2] = test: Human mitophagy assay (HeLa MKYP, mtKeima FACS, FCCP/oligomycin); type: cell-based
Description: as §1, with “tag). Examples are shown in FIG. 1 through FIG. 13 below.” for “tag).”

mitotoxicity = test: Mitotox safety margin (therapeutic window); type: cell-based; conditions: for Mitotox safety margin (Therapeutic window): class of the Ratio; for Ratio**: highest concentration with no observable mitotoxicity (μM) divided by the EC50 (μM) of the compound
[3] = test system: Hela MKYP (Mito-Keima/YFP-Parkin) cells; conditions: human, 22 h
Description: (§2) Briefly, the Hela MKYP (Mito-Keima/YFP-Parkin) cells were seeded at 10K cells/well. EP/MTK compounds were added at seeding (cells were still in suspension). The cells were incubated with the EP/MTK compounds for 16 hours, then 1 μM FCCP/oligomycin was added for 6 hours. Prior to harvesting, cells were scored by eye under 20× magnification for the presence or absence of crystalline or aggregated compound, or round cells.

[4] = Visual inspection of crystallization; type: physicochemical; parameters: key: 1: yes crystals; 0: no crystals; conditions: Tables 5A-5D
Description: as §2

[5] = Table 3, read-out: Potency at 1 μM F/O toxin* (EC50 of mitophagy activation)
[6] = Homo sapiens, HeLa, Table 3, read-out: Potency at 1 μM F/O toxin* (EC50 of mitophagy activation)
[7] = Homo sapiens, HeLa, Table 3 Supplement B, read-out: Mitophagy EC50 (HeLa mKeima assay)

Row | Compound | Toxicity (% positive for DAPI takeup @ 50 μM) (HeLa MKYP cells [1]; 50 μM) [%] | solubility (Solubility in 1× PBS) [µM] | Max cell death at 25 uM compound, 1 uM FO (HeLa MKYP cells [1]) [%] | Cell death at 25 μM (no FO) (HeLa MKYP cells [1]) [%] | EC50 (HeLa MKYP cells [2]; [6]) [µM] | EC50 (HeLa MKYP cells [2]; [7]) [µM] | Mitotox safety margin (Therapeutic window) (mitotoxicity) | Ratio** (mitotoxicity) | also measured
1 | C[C@H]1CCc2ccccc2[C@@H]1Nc1ncnc2[nH]c(C(F)(F)F)cc12 [Compound 102] | 13.3 | 1 (≈ 0.346 µg/mL) | – | – | – | – | – | – | Max cell death at 25 uM compound, 1 uM FO (HeLa MKYP cells [1]; listed as EP-0037882): 13.32%; Cell death at 25 μM (no FO) (HeLa MKYP cells [1]; listed as EP-0037882): 3.79%; EC50 (HeLa MKYP cells [2]; [5]): 0.6 µM; EC50 (HeLa MKYP cells [2]; Table 3 Supplement B, listed as EP-0037882, read-out: Mitophagy EC50 (HeLa mKeima assay)): 0.59 µM; Mitotox safety margin (Therapeutic window) (mitotoxicity; listed as EP-0037882): ++++ (ratio 30<); Ratio** (mitotoxicity; listed as EP-0037882): 42.16
2 | CC[C@@H]1CCc2ccccc2[C@@H]1Nc1ncnc2[nH]c(C(F)(F)F)cc12 [Compound 100] | 8.7 | 9.39 (≈ 3.38 µg/mL) | 8.735 | 5.04 | 1.8 | 1.81 | ++ (ratio 10< × <20) | 13.8 | –
3 | OC[C@@H]1CCc2ccccc2[C@H]1Nc1ncnc2[nH]c(C(F)(F)F)cc12 [Compound 94] | 59.5 | 12.9 (≈ 4.67 µg/mL) | 59.535 | 27 | 1.1 | 1.15 | + (ratio <10) | 7.25 | –
4 | N#Cc1cccc2c1CCCC2Nc1ncnc2[nH]c(C(F)(F)F)cc12 (centres unmarked) [Compound 92] | 71.2 | 1 (≈ 0.357 µg/mL) | 71.2 | 57.1 | 3 | 2.98 | + (ratio <10) | 8.39 | –
5 | CO[C@@H]1CCc2ccccc2[C@H]1Nc1ncnc2[nH]c(C(F)(F)F)cc12 [Compound 105] | 18.4 | 1 (≈ 0.362 µg/mL) | 18.4 | 15.3 | – | 22.1 | – | – | –
6 | c1ccc2c(c1)CCC[C@H]2Nc1ncnc2[nH]c(C3CC3)cc12 [Compound 107] | 16.6 | 1 (≈ 0.304 µg/mL) | 14.9 | 9.32 | 0.48 | 0.47 | ++++ (ratio 30<) | 53.2 | –
7 | c1ccc(CNc2ncnc3nc[nH]c23)cc1 [Compound 6BAP, 6-benzylaminopurine, reference compound] | – | – | – | – | – | – | – | – | Inspection of round cells ([3]; 1.6 μM): 0; Inspection of round cells ([3]; 3.1 μM): 0; Inspection of round cells ([3]; 6.3 μM): 0; Inspection of round cells ([3]; 12.5 μM): 0; Inspection of round cells ([3]; 25 μM): 0; Inspection of round cells ([3]; 50 μM): 0; Visual inspection of crystallization ([4]; 1.6 μM): 0; Visual inspection of crystallization ([4]; 3.1 μM): 0; Visual inspection of crystallization ([4]; 6.3 μM): 0; Visual inspection of crystallization ([4]; 12.5 μM): 0; Visual inspection of crystallization ([4]; 25.0 μM): 0; Visual inspection of crystallization ([4]; 50.0 μM): 0
8 | OC[C@H]1CCc2ccccc2[C@@H]1Nc1ncnc2[nH]c(C(F)(F)F)cc12 [Compound 95] | 30.9 | 9.07 (≈ 3.29 µg/mL) | 30.87 | 9.83 | 5.5 | 5.55 | – | – | –
9 | CN(C)[C@H]1CCc2ccccc2[C@@H]1Nc1ncnc2[nH]c(C(F)(F)F)cc12 [Compound 108] | 79.3 | 190 (≈ 71.3 µg/mL) | 79.29 | 4.33 | > 50 | 0.81 | – | – | –
10 | C[C@H]1CCc2ccccc2[C@H]1Nc1ncnc2[nH]c(C(F)(F)F)cc12 [Compound 85] | 31.4 | – | – | – | – | 1.08 | + (ratio <10) | 7.74 | Max cell death at 25 uM compound, 1 uM FO (HeLa MKYP cells [1]; listed as EP-0037094): 31.4%; Cell death at 25 μM (no FO) (HeLa MKYP cells [1]; listed as EP-0037094): 7.13%; EC50 (HeLa MKYP cells [2]; [5]): 1.1 µM
11 | CO[C@H]1COc2ccccc2[C@@H]1Nc1ncnc2[nH]c(C(F)(F)F)cc12 [Compound 104] | 7.7 | – | – | – | – | – | – | – | Max cell death at 25 uM compound, 1 uM FO (HeLa MKYP cells [1]; listed as EP-0037962): 7.67%; Cell death at 25 μM (no FO) (HeLa MKYP cells [1]; listed as EP-0037962): 5.15%; solubility (Solubility in 1× PBS; aqueous buffer): 1.31 µM (≈ 0.477 µg/mL); EC50 (HeLa MKYP cells [2]; [5]): 1.5 µM; EC50 (HeLa MKYP cells [2]; Table 3 Supplement B, listed as EP-0037962, read-out: Mitophagy EC50 (HeLa mKeima assay)): 1.48 µM
12 | Oc1ccc2c(c1)CCC[C@H]2Nc1ncnc2[nH]c(C(F)(F)F)cc12 [Compound 110] | 11.0 | 102 (≈ 35.5 µg/mL) | 11 | 3.32 | 4.4 | 4.38 | – | – | –
13 | CN1CC[C@H](Nc2ncnc3[nH]c(C(F)(F)F)cc23)c2ccccc21 [Compound 81] | 59.0 | 74.8 (≈ 26 µg/mL) | 16 | 2.51 | – | 1.33 | ++++ (ratio 30<) | 30 | EC50 (HeLa MKYP cells [2]; [5]): 1.7 µM
14 | C[C@H]1CCc2ccccc2[C@@H]1Nc1ncnc2[nH]c(C(F)(F)F)cc12 [Compound 82] | 28.3 | 1 (≈ 0.346 µg/mL) | – | – | 1 | 1.02 | – | – | Max cell death at 25 uM compound, 1 uM FO (HeLa MKYP cells [1]; listed as EP-0037059): 26%; Cell death at 25 μM (no FO) (HeLa MKYP cells [1]; listed as EP-0037059): 4.9%; Mitotox safety margin (Therapeutic window) (mitotoxicity; listed as EP-0037059): + (ratio <10); Ratio** (mitotoxicity; listed as EP-0037059): 8.69
15 | O[C@H]1Cc2ccccc2[C@@H]1Nc1ncnc2[nH]c(C(F)(F)F)cc12 [Compound 90] | 14.4 | 20.1 (≈ 6.72 µg/mL) | 14.4 | 2.51 | – | 18.5 | + (ratio <10) | 1.35 | –
16 | O[C@@H]1Cc2ccccc2[C@H]1Nc1ncnc2[nH]c(C(F)(F)F)cc12 [Compound 88] | 7.6 | 19.2 (≈ 6.42 µg/mL) | 7.59 | 2.35 | – | 15.1 | + (ratio <10) | 1.66 | –
17 | FC(F)(F)c1cc2c(N[C@@H]3CCOc4ccccc43)ncnc2[nH]1 [Compound 37] | 21.1 | 150 (≈ 50.1 µg/mL) | 21 | 3.04 | 6.3 | 6.25 | + (ratio <10) | 8.85 | Toxicity (% positive for DAPI take-up at 50 μM)* (HeLa MKYP cells [1]; Table 3 Supplement A, 50 μM): 21.05%; EC50 (HeLa MKYP cells [2]; Homo sapiens, HeLa, Table 3 Supplement A, as measured in Table 3, read-out: Potency (EC50 Max Mitophagy) (μM)*): 6.28 µM
18 | COc1ccc2c(c1)[C@@H](Nc1ncnc3[nH]c(C(F)(F)F)cc13)CCC2 [Compound 87] | 5.9 | 1.2 (≈ 0.435 µg/mL) | – | – | – | – | – | – | Max cell death at 25 uM compound, 1 uM FO (HeLa MKYP cells [1]; listed as EP-0037131): 5.9%; Cell death at 25 μM (no FO) (HeLa MKYP cells [1]; listed as EP-0037131): 1.2%; EC50 (HeLa MKYP cells [2]; [5]): 9.5 µM; EC50 (HeLa MKYP cells [2]; Table 3 Supplement B, listed as EP-0037131, read-out: Mitophagy EC50 (HeLa mKeima assay)): 9.46 µM
19 | CO[C@@H]1COc2ccccc2[C@H]1Nc1ncnc2[nH]c(C(F)(F)F)cc12 [Compound 97] | 10.6 | 16.4 (≈ 5.97 µg/mL) | 10.645 | 2.61 | 6.3 | 6.32 | – | – | –
